By IC50 is commonly meant the concentration needed to halve the response being measured.

Like-named read-outs stand apart in the source and are kept apart here.

The values below come from patent US10538487B2, “Sulfonylureas and related compounds and use of same” (priority 2015, dated 2020).

A short description of data set [1]: Half life of CRID3 in mouse (stated in description). The format is in vivo.
Data set [2] concerns the target T1, NLRP3 inflammasome (Homo sapiens, UniProt Q96P20). Briefly: Inhibition of IL-1β release, NLRP3 inflammasome activation assay in HMDM. The format is cell-based. In a few lines:
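Primary human monocyte-derived macrophages from CD14+ buffy-coat monocytes, seeded at 1×10^5/ml. Compound added in serum-free medium 30 min before NLRP3 stimulation (ATP, nigericin, LeuLeu-OMe or MSU). Cytokine in supernatants measured by ELISA or AlphaLISA; cell death by LDH release relative to full lysis.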

Data set [3] deals with T1, NLRP3 inflammasome. Briefly: Inhibition of IL-18 release, NLRP3 inflammasome activation assay in HMDM. The format is cell-based. The settings on record: class symbols. As to the method:
The following assays can be used to determine inhibitory activity of test compounds on the NLRP3 inflammasome using common stimuli such as adenosine triphosphate, nigericin, LeuLeu-OMe or monosodium urate crystals (MSU).
To generate HMDM, human monocytes are isolated from buffy coat blood using Ficoll-Plaque Plus (GE Healthcare) and density centrifugation. CD14^+ cell selection is performed using MACS magnetic beads (Miltenyl Biotec).
HMDM are seeded at 1×10^5/ml. […] Medium is removed and replaced with serum free medium (SFM) containing test compound 30 min prior to NLRP3 stimulation. […] ATP can be sourced from Sigma Aldrich, nigericin and MSU from Invivogen and LeuLeu-Ome from Chem-Impex International.
For ELISA and cell death assays cells are seeded in 96 well plates. Supernatants are removed and analysed using ELISA kits according to the manufacturer's instructions (DuoSet® R&D Systems, ReadySetGo!® eBioscience, BD OptEIA™, or Perkin Elmer AlphaLISA®). Cell death is assessed by measurement of LDH release relative to a 100% cell lysis control using the CytoTox96® non-radioactive cytotoxicity assay (Promega).

Data set [4] has as its target NLRP3 inflammasome (Mus musculus, UniProt Q8R4B8). Briefly: Inhibition of IL-1β release, NLRP3 inflammasome activation assay in BMDM. The format is cell-based. In a few lines: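 C57BL/6 mouse BMDM seeded at 1×10^5/ml were primed with E. coli K12 LPS for 3 h, then given compound in serum-free medium 30 min before NLRP3 stimulation (ATP, nigericin, LeuLeu-OMe or MSU). Released IL-1β in supernatants was measured by ELISA, and cell death by LDH release relative to full lysis.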

The next data set is described as follows: in vivo. The settings on record: mouse, brain, mice, oral gavage at 20 mg/kg.
Data set [5] can be described thus: Compound levels in blood plasma of mice after oral gavage (LC-MS/MS). The format is in vivo. The settings on record: mouse, 2 hour timepoint after oral gavage at 20 mg/Kg.
Description: A series of 10-fold dilutions of the 100,000 ng/mL stock solution with 10 mM NH4HCO3 gave concentrations of 10,000, 1,000, 100 and 10 ng/mL. The 100,000 ng/mL stock solution was diluted to 3:7 with 10 mM NH4HCO3 to give a concentration of 30,000 ng/mL and a series of 10-fold dilutions gave concentrations of 3,000, 300, 30 and 3 ng/mL.
20 μL of test compound-containing solution and 160 μL precipitation solution were added to 20 μL of mouse plasma in a low binding Eppendorf tube. The samples were vortexed, allowed to stand at 4° C. for 10 mins and centrifuged at 14,000×g for 8 min. 150 μL of the supernatant was transferred to an HPLC vial insert. The samples were stored at 4° C. until analysis.
Dosing: Oral gavage at 20 mg/kg
(§1) Prepare stock compounds for dosing at 4 mg/ml in sterile PBS. Mice were weighed and dosed by oral gavage at 20 mg/kg for each compound. […]
The samples were analysed on an AB Sciex 4000QTrap MS with 2 Shimadzu Nexera LC-30AD Solvent Delivery Units, Shimadzu Nexera SIL-30AC Auto-Sampler, Shimadzu Prominence DGU-20A5 Degasser, Shimadzu Prominence CBM-20A System Controller and Shimadzu Prominence CTO-20A Column Oven. […] The peak areas from the SRM data for carbutamide and test compound were analysed using the AB Sciex's Analyst software using the Quantitation Wizard.
Setting [6] is: inhibition of IL-1β release, class symbols, read-out: Avg. IL-1β IC50 HMDM.
[7] abbreviates: inhibition of IL-1β release, class symbols, read-out: Avg. IL-1β IC50 Murine BMDM.
[8] abbreviates: inhibition of IL-1β release, numeric bounds, read-out: Avg. IL-1β IC50 Murine BMDM.
The mark [9] stands for this setting: select compounds of the first aspect (Table 10), read-out: HMDM IC50 vs NLRP3.
[10] abbreviates: select compounds of the first aspect (Table 10), read-out: BMDM IC50 vs NLRP3.

T1 sequence (Q96P20 whole entry): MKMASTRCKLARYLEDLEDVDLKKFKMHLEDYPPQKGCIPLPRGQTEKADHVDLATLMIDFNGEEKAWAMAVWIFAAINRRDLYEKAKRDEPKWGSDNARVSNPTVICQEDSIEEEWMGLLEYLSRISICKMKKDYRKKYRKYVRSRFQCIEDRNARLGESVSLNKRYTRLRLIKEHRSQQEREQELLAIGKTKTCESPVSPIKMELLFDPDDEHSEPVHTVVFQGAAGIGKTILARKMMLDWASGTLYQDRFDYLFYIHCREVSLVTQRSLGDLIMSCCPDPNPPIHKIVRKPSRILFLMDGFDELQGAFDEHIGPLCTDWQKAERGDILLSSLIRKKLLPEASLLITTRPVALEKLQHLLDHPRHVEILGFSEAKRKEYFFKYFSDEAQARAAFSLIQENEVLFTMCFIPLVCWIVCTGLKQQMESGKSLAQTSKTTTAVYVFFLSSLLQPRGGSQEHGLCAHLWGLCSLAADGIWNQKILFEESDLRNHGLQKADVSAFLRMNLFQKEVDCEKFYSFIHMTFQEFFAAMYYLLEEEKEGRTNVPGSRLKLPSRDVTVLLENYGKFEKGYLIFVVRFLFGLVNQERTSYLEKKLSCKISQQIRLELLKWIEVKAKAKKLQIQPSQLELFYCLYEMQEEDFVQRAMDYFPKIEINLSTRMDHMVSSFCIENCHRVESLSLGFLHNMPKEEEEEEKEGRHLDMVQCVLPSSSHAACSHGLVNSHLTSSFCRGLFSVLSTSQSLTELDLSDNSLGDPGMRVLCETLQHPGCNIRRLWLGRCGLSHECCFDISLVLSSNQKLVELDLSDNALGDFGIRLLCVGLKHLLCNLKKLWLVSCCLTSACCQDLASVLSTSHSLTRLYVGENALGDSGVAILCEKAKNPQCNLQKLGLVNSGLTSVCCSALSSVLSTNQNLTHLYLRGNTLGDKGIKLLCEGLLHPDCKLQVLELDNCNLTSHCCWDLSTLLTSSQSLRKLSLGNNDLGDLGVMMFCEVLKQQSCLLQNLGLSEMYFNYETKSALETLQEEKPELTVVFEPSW
Sequence of NLRP3 inflammasome (Mus musculus, UniProt Q8R4B8) (Q8R4B8 whole entry): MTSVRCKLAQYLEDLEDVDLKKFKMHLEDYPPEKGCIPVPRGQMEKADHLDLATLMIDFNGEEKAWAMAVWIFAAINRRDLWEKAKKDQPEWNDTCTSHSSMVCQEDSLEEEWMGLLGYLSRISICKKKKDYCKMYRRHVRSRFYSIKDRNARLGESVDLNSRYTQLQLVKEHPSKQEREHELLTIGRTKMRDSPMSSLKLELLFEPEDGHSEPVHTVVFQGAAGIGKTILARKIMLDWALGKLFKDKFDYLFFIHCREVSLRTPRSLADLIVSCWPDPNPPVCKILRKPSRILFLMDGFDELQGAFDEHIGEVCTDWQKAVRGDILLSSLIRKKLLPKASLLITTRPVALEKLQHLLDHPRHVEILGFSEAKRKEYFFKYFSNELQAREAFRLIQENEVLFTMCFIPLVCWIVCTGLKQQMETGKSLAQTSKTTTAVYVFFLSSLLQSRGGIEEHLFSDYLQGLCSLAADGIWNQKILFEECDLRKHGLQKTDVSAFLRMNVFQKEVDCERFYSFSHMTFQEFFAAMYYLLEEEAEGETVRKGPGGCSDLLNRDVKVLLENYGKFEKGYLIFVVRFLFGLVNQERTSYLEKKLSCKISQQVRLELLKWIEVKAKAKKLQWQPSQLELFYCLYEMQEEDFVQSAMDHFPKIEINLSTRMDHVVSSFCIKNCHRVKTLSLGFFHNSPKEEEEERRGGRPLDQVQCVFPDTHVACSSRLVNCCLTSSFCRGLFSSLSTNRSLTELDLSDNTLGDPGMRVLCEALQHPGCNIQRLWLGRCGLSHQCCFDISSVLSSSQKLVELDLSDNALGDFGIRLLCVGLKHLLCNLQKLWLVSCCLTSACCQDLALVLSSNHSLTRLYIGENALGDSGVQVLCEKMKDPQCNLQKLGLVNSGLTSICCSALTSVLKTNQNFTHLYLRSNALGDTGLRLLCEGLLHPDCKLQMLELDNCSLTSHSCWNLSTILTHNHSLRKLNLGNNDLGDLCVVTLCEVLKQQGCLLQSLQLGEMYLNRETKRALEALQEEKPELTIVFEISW
Description for in vivo: The sample solutions prepared for the plasma standard curve were used for the brain homogenate standard curve.
The mouse brain homogenate from the saline control was thawed and vortexed for 3 min or until homogenous, sonicated for 1 min. When the foam settled, 50 μL of mouse brain homogenate was transferred into an Eppendorf tube, followed by 50 μL of test compound in 10 mM NH4HCO3, 150 μL of H2O and 500 μL of ice cold precipitation solution with vortexing after every addition. The standards were allowed to stand at 4° C. for 10 mins and then centrifuged at 14,000×g for 8 min. 200 μL of the supernatant was transferred to HPLC vial insert ensuring that no air bubbles were present and the samples stored at 4° C. until analysis.
Dosing: Oral gavage at 20 mg/kg
as §1
The samples were analysed on an AB Sciex 4000QTrap MS with 2 Shimadzu Nexera LC-30AD Solvent Delivery Units, Shimadzu Nexera SIL-30AC Auto-Sampler, Shimadzu Prominence DGU-20A5 Degasser, Shimadzu Prominence CBM-20A System Controller and Shimadzu Prominence CTO-20A Column Oven. […] The peak areas from the SRM data for carbutamide and test compound were analysed using the AB Sciex's Analyst software using the Quantitation Wizard. […]

The compound `CC(C)(O)c1coc(S(=O)(=O)NC(=O)Nc2c3c(cc4c2CCC4)CCC3)c1` [CRID3] yielded a half life in data set [1] of 3.2 h.
`CC(C)(C)n1ccc(S(=O)(=O)NC(=O)Nc2c3c(cc4c2CCC4)CCC3)n1` [1-(tert-butyl)-N-((1,2,3,5,6,7-hexahydro-s-indacen-4-yl)carbamoyl)-1H-pyrazole-3-sulfonamide]: the IC50 at NLRP3 inflammasome [2] (setting [6]) and against NLRP3 inflammasome [3] was < 100 nM each time.
Regarding `Cn1nc(S(=O)(=O)NC(=O)Nc2c3c(cc4c2CCC4)CCC3)cc1C(C)(C)O` [N-((1,2,3,5,6,7-hexahydro-s-indacen-4-yl)carbamoyl)-5-(2-hydroxypropan-2-yl)-1-methyl-1H-pyrazole-3-sulfonamide], the IC50 on NLRP3 inflammasome [2] (setting [6]), against NLRP3 inflammasome [3] and on NLRP3 inflammasome [4] (setting [7]) was < 100 nM in each case.
As to `CC(C)c1cccc(C(C)C)c1NC(=O)NS(=O)(=O)c1cc(C(C)(C)O)n(C)n1` [N-((2,6-diisopropylphenyl)carbamoyl)-5-(2-hydroxypropan-2-yl)-1-methyl-1H-pyrazole-3-sulfonamide], the IC50 at NLRP3 inflammasome [2] (setting [6]) and at NLRP3 inflammasome [3] was < 100 nM throughout.
With `O=C(Nc1c2c(cc3c1CCC3)CCC2)NS(=O)(=O)c1ncn(Cc2ccccc2)n1` [1-benzyl-N-((1,2,3,5,6,7-hexahydro-s-indacen-4-yl)carbamoyl)-1H-1,2,4-triazole-3-sulfonamide], the IC50 at NLRP3 inflammasome [2] (setting [6]) and at NLRP3 inflammasome [3] was < 100 nM in each case.
As to `Cc1ccc(S(=O)(=O)NC(=O)Nc2c3c(cc4c2CCC4)CCC3)o1` [N-((1,2,3,5,6,7-hexahydro-s-indacen-4-yl)carbamoyl)-5-methylfuran-2-sulfonamide], the IC50 at NLRP3 inflammasome [2] (setting [6]) and against NLRP3 inflammasome [3] was < 100 nM throughout.
For `Cc1ccc(S(=O)(=O)NC(=O)Nc2c3c(cc4c2CCC4)CCC3)s1` [N-((1,2,3,5,6,7-hexahydro-s-indacen-4-yl)carbamoyl)-5-methylthiophene-2-sulfonamide], the IC50 at NLRP3 inflammasome [2] (setting [6]) and against NLRP3 inflammasome [3] was < 100 nM each time.
On to `CCC1=C(C)CN(C(=O)NCCc2ccc(S(=O)(=O)NC(=O)Nc3c4c(cc5c3CCC5)CCC4)cc2)C1=O` [3-Ethyl-N-(4-(N-((1,2,3,5,6,7-hexahydro-s-indacen-4-yl)carbamoyl)sulfamoyl)phenethyl)-4-methyl-2-oxo-2,5-dihydro-1H-pyrrole-1-carboxamide], for which the IC50 at NLRP3 inflammasome [2] (setting [6]) and at NLRP3 inflammasome [4] (setting [7]) was < 1000 nM in each case.
For the compound `COc1ccc2c(c1)C(=O)N(CCc1ccc(S(N)(=O)=O)cc1)C(=O)C2(C)C` [4-(2-(7-methoxy-4,4-dimethyl-1,3-dioxo-3,4-dihydroisoquinolin-2(1H)-yl)ethyl)benzenesulfonamide, reference compound], the IC50 is > 200000 nM at NLRP3 inflammasome [2] (inhibition of IL-1β release, numeric bounds, read-out: Avg. IL-1β IC50 HMDM) and > 10000 nM on NLRP3 inflammasome [4] (setting [8]).
As for `Nc1ccc(S(=O)(=O)NC(=O)Nc2c3c(cc4c2CCC4)CCC3)cc1` [drawing 365], the results for the IC50 on NLRP3 inflammasome [2] (setting [9]) and on NLRP3 inflammasome [4] (setting [10]) were 310 nM and 14 nM, respectively.
As for `CC(C)(O)c1coc(S(=O)(=O)NC(=O)Nc2c3c(c(Br)c4c2CCC4)CCC3)c1` [N-((8-bromo-1,2,3,5,6,7-hexahydro-s-indacen-4-yl)carbamoyl)-4-(2-hydroxypropan-2-yl)furan-2-sulfonamide], the IC50 at NLRP3 inflammasome [2] (setting [6]) and on NLRP3 inflammasome [4] (setting [7]) was < 100 nM each time.
In the case of `O=C(Nc1ccc(Cl)cc1)NS(=O)(=O)c1ccc2c(c1)CCC2` [Sulofenur, reference compound], the half-maximal inhibitory concentration (IC50) at NLRP3 inflammasome [2] (commercial compounds (Table 9), read-out: HMDM IC50 vs NLRP3) was > 100000 nM; at NLRP3 inflammasome [4] (commercial compounds (Table 9), read-out: BMDM IC50 vs NLRP3) it was > 10000 nM.
With `Cc1cc(Cl)cc(C)c1NC(=O)NS(=O)(=O)c1ccn(C(C)C)n1` [N-((4-chloro-2,6-dimethylphenyl)carbamoyl)-1-isopropyl-1H-pyrazole-3-sulfonamide], the IC50 on NLRP3 inflammasome [2] (setting [6]) was < 10000 nM; at NLRP3 inflammasome [4] (setting [8]) it was > 10000 nM.
On to `CC(C)(O)c1cc(S(=O)(=O)NC(=O)Nc2c3c(cc4c2CCC4)CCC3)nn1Cc1ccccc1` [1-benzyl-N-((1,2,3,5,6,7-hexahydro-s-indacen-4-yl)carbamoyl)-5-(2-hydroxypropan-2-yl)-1H-pyrazole-3-sulfonamide], for which the IC50 at NLRP3 inflammasome [2] (setting [6]) and against NLRP3 inflammasome [3] was < 100 nM each time.
For the compound `CC(C)(O)c1cc(S(=O)(=O)NC(=O)Nc2c3c(cc4c2CCC4)CCC3)nn1-c1ccccc1` [N-((1,2,3,5,6,7-hexahydro-s-indacen-4-yl)carbamoyl)-5-(2-hydroxypropan-2-yl)-1-phenyl-1H-pyrazole-3-sulfonamide], the IC50 on NLRP3 inflammasome [2] (setting [6]), on NLRP3 inflammasome [3] and on NLRP3 inflammasome [4] (setting [7]) was < 100 nM throughout.
In the case of `CC(C)(O)c1coc(S(=O)(=O)NC(=O)Nc2c3c(cc4c2CCC4)CCC3)c1` [drawing 335], the figures for the concentration at 2 h (in the data set “in vivo”; in data set [5]) were 184 ng/g and 17500 ng/mL, respectively. The Kp at 2 h in the data set “in vivo” (read-out: Brain/Plasma Ratio) is 0.0117.
As for `O=C(Nc1c2c(cc3c1CCC3)CCC2)NS(=O)(=O)c1cccs1` [N-((1,2,3,5,6,7-hexahydro-s-indacen-4-yl)carbamoyl)thiophene-2-sulfonamide], the IC50 at NLRP3 inflammasome [2] (setting [6]) and against NLRP3 inflammasome [3] was < 100 nM throughout.
For `Cc1cc(C(=O)NCCc2ccc(S(=O)(=O)NC(=O)Nc3c4c(cc5c3CCC5)CCC4)cc2)no1` [drawing 362], the results for the IC50 on NLRP3 inflammasome [2] (setting [9]) and on NLRP3 inflammasome [4] (setting [10]) were 190 nM and 280 nM, respectively.
Turning to `CC(C)n1ccc(S(=O)(=O)NC(=O)Nc2c3c(cc4c2CCC4)CCC3)n1` [drawing 336], the concentration at 2 h in data set [5] was found to be 28200 ng/mL.
`COc1ccc2c(c1NC(=O)NS(=O)(=O)c1cc(C(C)(C)O)co1)CCC2` [4-(2-hydroxypropan-2-yl)-N-((5-methoxy-2,3-dihydro-1H-inden-4-yl)carbamoyl)furan-2-sulfonamide]: the IC50 on NLRP3 inflammasome [2] (setting [6]) and on NLRP3 inflammasome [4] (setting [7]) was < 1000 nM in each case.
As for `CC(=O)c1ccc(S(=O)(=O)NC(=O)Nc2c3c(cc4c2CCC4)CCC3)cc1` [4-Acetyl-N-((1,2,3,5,6,7-hexahydro-s-indacen-4-yl)carbamoyl)benzenesulfonamide], the IC50 at NLRP3 inflammasome [2] (setting [6]) is < 1000 nM; at NLRP3 inflammasome [4] (setting [7]) it was < 100 nM.
With `Cc1cc(C(=O)NCCc2ccc(S(=O)(=O)NC(=O)Nc3c4c(cc5c3CCC5)CCC4)cc2)no1` [N-(4-(N-((1,2,3,5,6,7-hexahydro-s-indacen-4-yl)carbamoyl)sulfamoyl)phenethyl)-5-methylisoxazole-3-carboxamide], the IC50 at NLRP3 inflammasome [2] (setting [6]) and on NLRP3 inflammasome [4] (setting [7]) was < 1000 nM in each case.
Regarding `CCC1=C(C)CN(C(=O)NCCc2ccc(S(=O)(=O)NC(=O)Nc3c4c(cc5c3CCC5)CCC4)cc2)C1=O` [drawing 360], the IC50 on NLRP3 inflammasome [2] (setting [9]) turned out to be 650 nM; at NLRP3 inflammasome [4] (setting [10]), 220 nM.
Take `O=C(Nc1c2c(cc3c1CCC3)CCC2)NS(=O)(=O)c1cccc(OC(F)(F)F)c1` [N-((1,2,3,5,6,7-hexahydro-s-indacen-4-yl)carbamoyl)-3-(trifluoromethoxy)benzenesulfonamide]: the IC50 at NLRP3 inflammasome [2] (setting [6]) and at NLRP3 inflammasome [4] (setting [7]) was < 1000 nM throughout.
For the compound `CC(C)n1ccc(S(=O)(=O)NC(=O)Nc2c(C3CC3)cc(Cl)cc2C2CC2)n1` [N-((4-chloro-2,6-dicyclopropylphenyl)carbamoyl)-1-isopropyl-1H-pyrazole-3-sulfonamide], the IC50 at NLRP3 inflammasome [2] (setting [6]) and on NLRP3 inflammasome [4] (setting [7]) was < 1000 nM throughout.
